What all share (test): NCI-60 cell line screen, 48 h
Experiment [1] concerns OVCAR-8 ovarian.
Experiment [2] deals with SK-MEL-2 melanoma.
The subject of experiment [3] is NCI-H460 lung.
Experiment [4] relates to CAKI-1 renal.
The subject of experiment [5] is UACC-257 melanoma.
Experiment [6] concerns SF-268 CNS.
Experiment [7] concerns SR leukemia.
For experiment [8], the system named is NCI-H226 lung.
The subject of experiment [9] is T-47D breast.
The test system of experiment [10] is MDA-MB-435.

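Tested at 5 concentrations; 48 h exposure; 96-well plates; endpoints linearly interpolated, else capped at highest concentration. GI50 marks 50% less growth. At the TGI there is no net growth.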

`CC1CC2(CCC1OCc1ccccc1)OCCO2` (stereo not given): the TGI in experiment [1], in experiment [2], in [3], in experiment [4] and in [5] was over 100 µM in each case.
With `CCC[CH2][Sn]1([CH2]CCC)[O]C(=O)CN=Cc2ccccc2[O]1`, the GI50 in [1] is 0.346 µM; in experiment [2], 0.22 µM; in [3], 1.28 µM; in experiment [6] it was 0.286 µM; in experiment [4], 0.182 µM; in experiment [5], 0.164 µM. Further, the TGI in [1] was found to be 1.39 µM; in [2], 0.555 µM; in experiment [3], 2.6 µM; in [6] it was 0.859 µM; in [4], 0.631 µM; in [5], 0.419 µM.
For `O=CN1CCN(C=S)CC1`, the TGI in experiment [1], in experiment [3], in experiment [6], in [4], in [5] and in experiment [7] was over 100 µM throughout. The molecule also displayed a TGI in experiment [8] of over 100 µM.
For `NC(=O)c1c2c(cc3c(=O)c4ccccc4[nH]c13)CCCC2`, the TGI in experiment [1], in experiment [2], in experiment [3], in experiment [6], in [4] and in experiment [5] was over 100 µM throughout. Moreover, the TGI in experiment [7] and in experiment [8] was over 100 µM each time.
`COc1cc(OC)cc(-c2cncn2-c2ccc(-c3nc4cc(OC)cc(OC)c4s3)cc2)c1`: the GI50 in experiment [1] is 14.5 µM; in experiment [2], 9.69 µM; in experiment [3] it was 4.41 µM; in experiment [6], 11.3 µM; in experiment [4], 2.13 µM; in experiment [5], over 100 µM. Also, the GI50 is 3.3 µM in experiment [7], 18.5 µM in [8] and 5.77 µM in experiment [9]. For the same molecule, the TGI in [1], in experiment [2], in [3], in [6], in experiment [4] and in [5] was over 100 µM each time. Besides, the TGI in experiment [7], in [8] and in experiment [9] was over 100 µM in each case.
As to `NC1=NC(c2ccc(F)cc2)C2=C(N1)c1ccc3ccccc3c1OCC2` (stereo not given), the GI50 in experiment [1] was 14.5 µM; in experiment [2] it was over 100 µM; in experiment [3] it was 6.96 µM; in [6], 18.2 µM; in [4] it was 12.3 µM; in [5] it was 34.2 µM. In addition, the GI50 in experiment [7] is 2.37 µM; in experiment [8], 9.57 µM; in experiment [9], 13.5 µM. In addition, the TGI was over 100 µM in [1]; over 100 µM in [2]; over 100 µM in [3]; over 100 µM in experiment [6]; 70.6 µM in experiment [4]; over 100 µM in experiment [5]. Further, the figures for the TGI in experiment [7], in [8] and in experiment [9] were over 100 µM, 57.4 µM and over 100 µM, respectively.
In the case of `C=CCN(CC=C)CC(C(C)=O)C(c1ccccc1)c1c(O)c2ccccc2oc1=O` (stereo not given), the TGI in experiment [1], in [2], in experiment [6], in experiment [4], in experiment [5] and in experiment [7] was over 100 µM each time. The molecule further gave a TGI in experiment [8] of over 100 µM.
With `NC1=C(Cl)C(=O)c2ccccc2C1=O`, the TGI is 27.8 µM in experiment [1]; over 44 µM in [2]; 11 µM in experiment [3]; 33.2 µM in [6]; 34.1 µM in [4]; 2.05 µM in experiment [10]. Further, the results for the TGI in [5], in experiment [7] and in experiment [8] were 8.38 µM, 32.9 µM and 18.3 µM, respectively.
Consider `CC(=O)O[C@H]1CC[C@@]2(C)C(=CC[C@@H]3C2CC[C@]2(C)Nc4[nH]ncc4CC32)C1` (stereo not given in full), for which the TGI was over 100 µM in experiment [1]; 72.7 µM in experiment [2]; 33.7 µM in experiment [3]; over 100 µM in [4]; 30.8 µM in [5]; over 100 µM in experiment [8].
As to `O=C1OCC2=C1C(c1cccc(C(F)(F)F)c1)c1cc3c(cc1N2CCO)CCC3` (stereo not given), the GI50 is 0.203 µM in experiment [1]; 0.34 µM in experiment [2]; 0.167 µM in experiment [3]; 0.266 µM in [6]; 0.174 µM in experiment [4]; 0.05 µM in experiment [10]. The figures for the GI50 in experiment [5] and in [8] were 6.5 µM and 1 µM, respectively. The TGI in experiment [1] stood at 8.31 µM; in [2], 10.6 µM; in [3], 5.4 µM; in experiment [6], 7.15 µM; in [4], 7.46 µM; in experiment [10], 0.159 µM. In addition, the TGI turned out to be 15.2 µM in experiment [5] and 9.43 µM in experiment [8].
In the case of `Cc1c(O)c(=O)ccn1CCO`, the TGI in [1], in experiment [2], in [3], in [6], in experiment [4] and in [5] was over 100 µM each time. Also, the TGI in experiment [7] and in [8] was over 100 µM in each case.
As to `COc1ccccc1NC(=O)CC(=O)NNCC(=O)Nc1nnc(-c2ccccc2)o1`, the TGI in experiment [1], in [2], in [6], in experiment [4], in experiment [5] and in experiment [7] was over 100 µM each time. The TGI in experiment [8] is over 100 µM.
`NC(N)=N/N=C/c1c(-c2ccc(Cl)c([N+](=O)[O-])c2)nc2ccccn12`: the GI50 is 1.35 µM in experiment [6], 11.8 µM in experiment [4], 6.76 µM in [5] and 2.08 µM in experiment [9]. The TGI in [6] worked out at 2.93 µM; in experiment [4], 42.4 µM; in experiment [5], 31 µM; in experiment [9] it was 5.01 µM.
For `COC(=O)C1=Cc2c(cc(OC)c(OC)c2OC)[C@H](c2ccc(OC)c(OC)c2OC)C1C(=O)OC` (stereo not given in full), the TGI in experiment [1], in [3], in experiment [6], in experiment [4], in experiment [5] and in experiment [7] was over 100 µM each time. In experiment [8], this molecule showed a TGI of over 100 µM.
In the case of `O=C(O)CCCNS(=O)(=O)c1ccc2ccccc2c1`, the TGI in experiment [1], in experiment [2], in [3], in [6], in experiment [4] and in experiment [5] was over 100 µM each time. Also, the TGI in experiment [8] was over 100 µM.
Turning to `CCOC(=O)C(=O)Nc1ccc(Cl)c(C(F)(F)F)c1`, the TGI in experiment [1], in [2], in [6], in experiment [4], in [5] and in experiment [7] was over 100 µM in each case. Also, the TGI in experiment [8] is over 100 µM.
In the case of `COc1ccc2c(c1)CCCC1C3=NCCC3(C)CSC21` (stereo not given), the TGI in experiment [1], in [3] and in experiment [6] was over 100 µM in each case.
Consider `CCOC(=O)c1cnc2cc3cccccc3n2c1=O`, for which the TGI in experiment [1], in [2], in experiment [3], in [6], in [4] and in [5] was over 100 µM in each case. The TGI in [7] and in [8] was over 100 µM throughout.
In the case of `CCCCCCCCCCCCCCCCn1cc[n+](Cc2ccccc2)c1C`, the GI50 in experiment [2] was 1.52 µM; in experiment [3], 0.479 µM; in [6], 0.548 µM; in experiment [5], 1.27 µM; in experiment [9] it was 0.207 µM. Besides, the TGI came to 3.26 µM in experiment [2]; 1.8 µM in experiment [3]; 1.77 µM in experiment [6]; 11.2 µM in experiment [5]; 0.951 µM in experiment [9].
Consider `O=C(O)c1ccc(C2C3C=CC(C3)C2[N+](=O)[O-])cc1` (stereo not given), for which the TGI in experiment [1], in [2], in experiment [3], in experiment [6], in experiment [4] and in experiment [5] was over 100 µM each time. In [8], the TGI was over 100 µM.
On to `CC(=O)OC12CC(C)C3(O)C4C=C(C)C(=O)[C@@]4(O)CC(CO)=C[C@H]3C1C2(C)C` (stereo not given in full), for which the GI50 in experiment [1] was over 1000 µM; in [2] it was over 1000 µM; in [6], over 1000 µM; in experiment [10] it was 0.205 µM; in experiment [5], over 1000 µM; in [7] it was over 1000 µM. Moreover, in [8], the GI50 was over 1000 µM. Moreover, the TGI in [1], in experiment [2], in experiment [6], in experiment [5], in [7] and in experiment [8] was over 1000 µM each time.
`Clc1cc(Cl)cc(Nc2nc3ccccc3nc2-c2cccs2)c1`: the TGI in experiment [1] was 27 µM; in experiment [2], over 100 µM; in [3], 41.6 µM; in experiment [6] it was over 100 µM; in [5], 60.4 µM; in [7] it was over 100 µM. The TGI in experiment [8] was over 100 µM.
Regarding `CC1=CC2CC(C)C1(C)CCc1ccoc12` (stereo not given), the TGI in experiment [1], in [2], in experiment [3], in experiment [6], in experiment [4] and in [5] was over 100 µM in each case. Further, the TGI in [7] was over 100 µM.
For the molecule `Cc1cc2c(cc1Br)C1(C)CCC(C)C1(C)O2` (stereo not given), the TGI was over 100 µM in [1]; 37.8 µM in experiment [2]; 53.7 µM in experiment [3]; over 100 µM in experiment [6]; over 100 µM in experiment [4]; 98.8 µM in experiment [5]. For the same molecule, the results for the TGI in experiment [7] and in experiment [8] were 30.5 µM and 50 µM, respectively.
On to `COc1ccc(C(O)/C(=C/n2ccnc2)c2ccccc2)cc1OC` (stereo not given), for which the TGI in experiment [1], in [2], in experiment [3], in experiment [6], in [5] and in experiment [7] was over 100 µM throughout. Besides, in [8], the TGI was over 100 µM.
As to `CCOC(=O)[C@H]1Nc2ccc(Cl)cc2[C@H]2c3ccccc3O[C@H]21`, the TGI in [1], in [2], in [3], in experiment [6], in experiment [4] and in [5] was over 100 µM in each case. Moreover, the TGI in experiment [7] and in experiment [8] was over 100 µM throughout.
Turning to `CN(CCN(C)C(=O)CCOS(C)(=O)=O)C(=O)CCOS(C)(=O)=O`, the TGI in [1], in experiment [2], in [3], in experiment [6], in [4] and in [5] was over 100 µM throughout. Moreover, the TGI in [7] and in experiment [8] was over 100 µM throughout.
For the molecule `Cn1c(=O)oc2cc(C3CCC(=O)N3Cc3ccc(Cl)cc3)ccc21` (stereo not given), the TGI in experiment [1], in experiment [2], in [3], in experiment [6], in [4] and in experiment [5] was over 100 µM in each case. In addition, the TGI in experiment [7] and in experiment [8] was over 100 µM in each case.
Consider `N=C(N)c1ccc(-c2ccc(-c3ccc(F)cc3)o2)o1`, for which the GI50 was 1.76 µM in experiment [2]; 1.76 µM in experiment [3]; 1.92 µM in [6]; 1.71 µM in [4]; 0.347 µM in experiment [10]; 1.98 µM in experiment [5]. Also, in experiment [8], the GI50 was 2.82 µM. The TGI in experiment [2] is 3.39 µM; in experiment [3] it was 3.36 µM; in experiment [6] it was 4.67 µM; in experiment [4] it was 3.56 µM; in experiment [10], 1.3 µM; in [5], 3.69 µM. This molecule also gave a TGI in experiment [8] of 9.71 µM.
Turning to `COc1cc2c(c(OC)c1OC)-c1ccc(SC)c(=O)cc1C(CC(=O)Oc1cccc(C#N)c1)C2` (stereo not given), the TGI in experiment [1] is 6.88 µM; in experiment [3] it was 19.7 µM; in experiment [6], over 100 µM; in experiment [4], over 100 µM; in experiment [5], over 100 µM; in experiment [7] it was 56.3 µM. Further, in experiment [8], the TGI came out at 1.02 µM.

(Values after PubChem BioAssay (NCI).)
